Results as given in ChEMBL document CHEMBL1125293 (J Med Chem, 1992).

Experiments:
Substance-P receptor [1] = biological target: T1, Substance-P receptor (Rattus norvegicus, UniProt P14600); assay: Inhibition of [125]I-Bolton Hunter Substance P([125]I-BHSP) binding to Tachykinin receptor 1 from rat forebrain membranes.; assay type: cell membranes, Membrane
Substance-P receptor [2] = biological target: T1, Substance-P receptor; assay type: cell membranes, Membrane

T1 sequence (P14600 whole entry): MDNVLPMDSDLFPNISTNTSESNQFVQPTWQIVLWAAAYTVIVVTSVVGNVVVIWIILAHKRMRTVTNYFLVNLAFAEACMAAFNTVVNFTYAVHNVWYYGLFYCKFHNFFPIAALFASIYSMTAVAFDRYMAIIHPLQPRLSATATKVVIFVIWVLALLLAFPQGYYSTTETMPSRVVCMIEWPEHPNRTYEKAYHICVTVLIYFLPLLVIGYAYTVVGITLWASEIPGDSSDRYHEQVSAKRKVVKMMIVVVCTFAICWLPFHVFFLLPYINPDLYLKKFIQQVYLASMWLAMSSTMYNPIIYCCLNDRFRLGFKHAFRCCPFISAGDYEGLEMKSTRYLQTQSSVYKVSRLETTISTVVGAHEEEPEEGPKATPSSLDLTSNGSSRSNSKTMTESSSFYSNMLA

| SMILES | IC50 (Substance-P receptor [1]) | IC50 (Substance-P receptor [2]) |
| --- | --- | --- |
| CC(C)CCCC(C)[C@@H]1CCC2C3CCC4Cc5nc6nc7ccccc7n6cc5C[C@]4(C)C3CC[C@@]21C (stereo not given in full) | > 10 µM | – |
| C[C@]12Cc3cn4c(nc3CC1CCC1C2CC[C@@]2(C)C1CC[C@@H]2O)nc1ccccc14 (stereo not given in full) | – | 220 nM |
| CC#C[C@]1(O)CCC2C3CCC4Cc5nc6nc7ccccc7n6cc5C[C@]4(C)C3CC[C@@]21C (stereo not given in full) | 0.18 µM | – |
| CC(CCC(=O)O)[C@H]1CCC2C3C(C[C@H](O)[C@@]21C)[C@@]1(C)Cc2cn4c(nc2CC1C[C@H]3O)nc1ccccc14 (stereo not given in full) | – | > 10000 nM |
| C#CC[C@]1(O)CCC2C3CCC4Cc5nc6nc7ccccc7n6cc5C[C@]4(C)C3CC[C@@]21C (stereo not given in full) | 0.32 µM | – |
| C#C[C@]1(O)CCC2C3CC[C@H]4Cc5nc6nc7cc8ccccc8cc7n6cc5C[C@]4(C)C3CC[C@@]21C (stereo not given in full) | – | 320 nM |
| C[C@]12Cc3cn4c(nc3CC1CCC1C2CC[C@@]2(C)C1CC[C@@]2(O)c1ccccc1)nc1ccccc14 (stereo not given in full) | > 10 µM | – |
| C#C[C@]1(OC)CCC2C3CCC4Cc5nc6nc7ccccc7n6cc5C[C@]4(C)C3CC[C@@]21C (stereo not given in full) | – | > 10000 nM |
| C#C[C@]1(O)CCC2C3CC[C@H]4Cc5nc6[nH]c7ccccc7c6cc5C[C@]4(C)C3CC[C@@]21C (stereo not given in full) | – | > 10000 nM |
| C[C@]12Cc3cn4c(nc3CC1CCC1C2CC[C@@]2(C)C1CC[C@]2(C)O)nc1ccccc14 (stereo not given in full) | – | 200 nM |
| COC(=O)[C@H]1CCC2C3CCC4Cc5nc6nc7ccccc7n6cc5C[C@]4(C)C3CC[C@@]21C (stereo not given in full) | > 10 µM | – |
| Cc1cc(C)n2c(n1)nc1ccccc12 | – | > 10000 nM |
| c1ccc2c(c1)nc1nc3c(cn12)CCCC3 | > 10 µM | – |
| C[C@]12Cc3cn4c(nc3CC1CCC1C2CC[C@]2(C)C(=O)CCC12)nc1ccccc14 (stereo not given in full) | > 10 µM | – |
| C=CC1=CCCC2Cc3nc4nc5ccccc5n4cc3C[C@]12C (stereo not given in full) | – | > 10000 nM |
| C#C[C@]1(O)CCC2C3CC[C@H]4Cc5nc6cc7ccccc7n6cc5C[C@]4(C)C3CC[C@@]21C (stereo not given in full) | – | > 10000 nM |
| COC(=O)CCC(C)[C@H]1CCC2C3C(C[C@H](O)[C@@]21C)[C@@]1(C)Cc2cn4c(nc2CC1C[C@H]3O)nc1ccccc14 (stereo not given in full) | – | > 2500 nM |
| C[C@]12CCC3C(CC[C@@H]4Cc5nc6nc7ccccc7n6cc5C[C@]34C)C1CC[C@@H]2O (stereo not given in full) | > 10 µM | – |
| C[C@@]12CCCC1C1CCC3Cc4nc5nc6ccccc6n5cc4C[C@]3(C)C1CC2 (stereo not given in full) | – | > 10000 nM |
| C=C[C@]1(O)CCC2C3CCC4Cc5nc6nc7ccccc7n6cc5C[C@]4(C)C3CC[C@@]21C (stereo not given in full) | – | 86 nM |
